# US20250205203A1, “SUBSTITUTED PYRAZOLYL COMPOUNDS AND METHODS OF USE THEREOF” (Chinook Therapeutics Canada, Inc., priority 2020, published 2025)
# How the values were obtained:
# [1] = target: T1, human recombinant C-terminal His-tagged LDHA (Homo sapiens (Human), UniProt P00338); assay: Human LDHA enzyme assay; format: biochemical; details: 50 μM pyruvate, 50 μM NADH, 1% DMSO
# Description: Biochemical assays include recombinant human LDH enzymatic assays in which purified recombinant human lactate dehydrogenase A (LDHA) is incubated with test compound, substrate pyruvate and coenzyme […], and its enzymatic activity measured by the formation of NAD upon conversion of pyruvate to lactate.
# (§1) Compounds were dissolved in DMSO and preincubated with human recombinant C-terminal His-tagged LDHA (0.070 μg/mL) for 10 min at room temperature in assay buffer consisting of 50 mM Tris (pH 7.5) and 100 mM NaCl in black walled, clear bottom, non-binding 96-well plates. Equal volumes of substrate solution containing 100 μM of pyruvate and 100 μM of NADH in assay buffer was added to each well (final concentration 0.035 μg/mL enzyme, 50 μM pyruvate, 50 μM NADH, and 1% DMSO). For human serum albumin (HSA) shift assay, the compounds were preincubated with the enzyme in assay buffer containing 20% HSA before substrate addition (final concentration 10% HSA). The reaction was monitored at 340 nm on a plate reader (Molecular Devices) in kinetic mode for 15 min. The rate of the reaction was determined by plotting absorbance vs time.
# [2] = target: T1, human recombinant C-terminal His-tagged LDHA; assay: Human LDHA enzyme assay, human serum albumin (HSA) shift assay; format: biochemical; details: final concentration 10% HSA
# Description: as §1
# [3] = test system: primary mouse hepatocytes; assay: Primary mouse hepatocyte assay (lactate production); format: cell-based; details: wild type C57BL/6 hepatocytes, in presence of pyruvate
# Description: LDH inhibitors can also be evaluated in an ex vivo assay consisting of primary mouse hepatocytes. Following isolation, viable wild-type murine hepatocytes are incubated with test compound in presence of pyruvate. Compound potency to modulate LDH enzymatic activity is then evaluated by measuring the conversion of pyruvate to lactate by the cells.
# Compounds were evaluated in an ex vivo assay consisting of fresh primary mouse hepatocytes. Hepatocytes were isolated from wild type mice (C57BL/6NCrl from Charles River Labs) using a two-step collagenase perfusion technique which involves a sequential perfusion of anesthetized mice with Hanks' balanced salt solution and collagenase. Following isolation, viable wild type hepatocytes are incubated with test compound in presence of pyruvate and compound potency is evaluated by measuring the lactate produced by the cells using liquid chromatography coupled to mass spectrometry. Chromatographic separation was achieved on an XDB-C18 4.6×50 mm column (Agilent, Cat #927975-902) at a flow rate of 1 mL/min. Mobile phase A consisted of 0.1% formic acid in water and mobile phase B consisted of acetonitrile. A gradient program was initiated starting at 5% B which was held for 1 minutes, then ramped from 5% to 95% B over 1 minute. After holding at 95% B for 1 minute, the program changed back to 5% B. The column was equilibrated with 5% B for 1.5 minutes before the next injection. The mass spectrometer was operated in negative mode with electrospray ionization. The following transition along with their collision energy (CE) were used: 89→43 (CE: −16 V) for lactate and 92→45 (CE: −16 V) for ^13C3-Lactate (internal standard).
# [4] = Liver-targeted tissue distribution profile study in rats; format: in vivo, rat; details: PO 10 mg/kg, SD rats
# Description: Plasma and liver (target organ) concentrations of test compounds were determined in rats following a single per os (PO) administration of the test compounds. Male Sprague Dawley rats (6-8 weeks of age, Charles River Labs) were fasted overnight and a single dose of test compounds (10 mg/kg; as a suspension in 0.5% methyl cellulose) was administered by PO gavage. Rats were then sacrificed at 4 and 24 h after administration of the test compounds, and plasma and liver tissue samples were collected. Liver tissue samples were homogenized in 5 volumes of water:acetonitrile (50/50; v/v) mixture using a bead mill homogenizer. Plasma and liver homogenate samples were processed by protein precipitation using acetonitrile and the concentrations of the test compounds were determined by liquid chromatography-tandem mass spectrometry (SciEx triple quad 5500+ with Exion UPLC).
# [5] = PH1 patients; cited from earlier work
Structure (SMILES),IC50 [1],IC50 [2],IC50 [3],Measured Compound Concentration Liver-4 h [4],Measured Compound Concentration Liver-24 h [4],Measured Compound Concentration Plasma-4 h [4],Measured Compound Concentration Plasma-24 h [4],lowering urinary oxalate [5]
"CC1(C#Cc2cc(-c3nn(-c4nc(C(=O)O)cs4)c(CC4CC4)c3Cc3ccc(S(N)(=O)=O)c(F)c3)ccc2F)COC1 [Example 3, 2-(5-(cyclopropylmethyl)-3-(4-fluoro-3-((3-methyloxetan-3-yl)ethynyl)phenyl)-4-(3-fluoro-4-sulfamoylbenzyl)-1H-pyrazol-1-yl)thiazole-4-carboxylic acid]",< 1 nM,1 to 10 nM,< 100 nM,,,,,
"NS(=O)(=O)c1ccc(Cc2c(-c3ccc(F)c(C#CC4CC4)c3)nn(-c3nc(C(=O)O)co3)c2CC2CC2)cc1F [Example 10, 2-(3-(3-(Cyclopropylethynyl)-4-fluorophenyl)-5-(cyclopropylmethyl)-4-(3-fluoro-4-sulfamoylbenzyl)-1H-pyrazol-1-yl)oxazole-4-carboxylic acid]",< 1 nM,1 to 10 nM,< 100 nM,,,,,
"NS(=O)(=O)c1ccc(Cc2c(-c3cccc(C#CC4(O)COC4)c3)nn(-c3nc(C(=O)O)cs3)c2CC2CC2)cc1F [Example 9, 2-(5-(cyclopropylmethyl)-4-(3-fluoro-4-sulfamoylbenzyl)-3-(3-((3-hydroxyoxetan-3-yl)ethynyl)phenyl)-1H-pyrazol-1-yl)thiazole-4-carboxylic acid]",< 1 nM,1 to 10 nM,< 100 nM,+++ (5 μM≥+++>1 μM),++ (1 μM≥++>0.25 μM),+ (0.25 μM≥+>0 μM),+ (0.25 μM≥+>0 μM),
Cc1ncc(CO)c(CO)c1O [Pyridoxine],,,,,,,,approximately 30%
"CC(C)(O)C#Cc1cccc(-c2nn(-c3nc(C(=O)O)cs3)c(CC3CC3)c2Cc2ccc(S(N)(=O)=O)c(F)c2)c1 [Example 6, 2-(5-(cyclopropylmethyl)-4-(3-fluoro-4-sulfamoylbenzyl)-3-(3-(3-hydroxy-3-methylbut-1-yn-1-yl)phenyl)-1H-pyrazol-1-yl)thiazole-4-carboxylic acid]",< 1 nM,1 to 10 nM,< 100 nM,++++ (++++>5 μM),+++ (5 μM≥+++>1 μM),+ (0.25 μM≥+>0 μM),+ (0.25 μM≥+>0 μM),
"CC(C)(O)C#Cc1cc(-c2nn(-c3nc(C(=O)O)cs3)c(CC3CC3)c2Cc2ccc(S(N)(=O)=O)c(F)c2)ccc1F [Example 2, 2-(5-(Cyclopropylmethyl)-3-(4-fluoro-3-(3-hydroxy-3-methylbut-1-yn-1-yl)phenyl)-4-(3-fluoro-4-sulfamoylbenzyl)-1H-pyrazol-1-yl)thiazole-4-carboxylic acid]",< 1 nM,< 1 nM,< 100 nM,+++ (5 μM≥+++>1 μM),+++ (5 μM≥+++>1 μM),+ (0.25 μM≥+>0 μM),+ (0.25 μM≥+>0 μM),
"NS(=O)(=O)c1ccc(Cc2c(-c3ccc(F)c(C#CC4(O)CC4)c3)nn(-c3nc(C(=O)O)cs3)c2CC2CC2)cc1F [Example 5, 2-(5-(cyclopropylmethyl)-3-(4-fluoro-3-((1-hydroxycyclopropl)ethynyl)phenyl)-4-(3-fluoro-4-sulfamoylbenzyl)-1H-pyrazol-1-yl)thiazole-4-carboxylic acid]",< 1 nM,,,,,,,
"CC1(C#Cc2cccc(-c3nn(-c4nc(C(=O)O)cs4)c(CC4CC4)c3Cc3ccc(S(N)(=O)=O)c(F)c3)c2)COC1 [Example 8, 2-(5-(cyclopropylmethyl)-4-(3-fluoro-4-sulfamoylbenzyl)-3-(3-((3-methyloxetan-3-yl)ethynyl)phenyl)-1H-pyrazol-1-yl)thiazole-4-carboxylic acid]",< 1 nM,1 to 10 nM,< 100 nM,,,,,
"NS(=O)(=O)c1ccc(Cc2c(-c3ccc(F)c(C#CC4(O)COC4)c3)nn(-c3nc(C(=O)O)cs3)c2CC2CC2)cc1F [Example 1, 2-(5-(Cyclopropylmethyl)-3-(4-fluoro-3-((3-hydroxyoxetan-3-yl)ethynyl)phenyl)-4-(3-fluoro-4-sulfamoylbenzyl)-1H-pyrazol-1-yl)thiazole-4-carboxylic acid]",< 1 nM,1 to 10 nM,< 100 nM,+++ (5 μM≥+++>1 μM),++ (1 μM≥++>0.25 μM),+ (0.25 μM≥+>0 μM),+ (0.25 μM≥+>0 μM),
"NS(=O)(=O)c1ccc(Cc2c(-c3cccc(C#CC4COC4)c3)nn(-c3nc(C(=O)O)cs3)c2CC2CC2)cc1F [Example 7, 2-(5-(cyclopropylmethyl)-4-(3-fluoro-4-sulfamoylbenzyl)-3-(3-(oxetan-3-ylethynyl)phenyl)-1H-pyrazol-1-yl)thiazole-4-carboxylic acid]",< 1 nM,1 to 10 nM,< 100 nM,++++ (++++>5 μM),+++ (5 μM≥+++>1 μM),+ (0.25 μM≥+>0 μM),+ (0.25 μM≥+>0 μM),
"NS(=O)(=O)c1ccc(Cc2c(-c3ccc(F)c(C#CC4(O)CCC4)c3)nn(-c3nc(C(=O)O)cs3)c2CC2CC2)cc1F [Example 4, 2-(5-(cyclopropylmethyl)-3-(4-fluoro-3-((1-hydroxycyclobutyl)ethynyl)phenyl)-4-(3-fluoro-4-sulfamoylbenzyl)-1H-pyrazol-1-yl)thiazole-4-carboxylic acid]",< 1 nM,1 to 10 nM,< 100 nM,,,,,
